Test results from patent US20250171426A1, “PYRIMIDINEDIONE-BASED COMPOUNDS AS AXL, C-MET, AND MER INHIBITORS AND METHODS OF USE THEREOF” (CMG Pharmaceutical Co., Ltd., priority 2022, published 2025).

Columns and labels:
Type in all cases: biochemical
Details in all cases: 10 μM ATP, 60 min, ADP-GLO luminescence
c-MET = c-MET (Homo sapiens, UniProt P08581); assay: Enzymatic assay (ADP-Glo kinase reaction), c-MET
Description: (§1) All the kinase reactions were performed in 5 μL using tyrosine kinase buffer with 0.2 μg/μL poly (Glu4, Tyr1) substrate, 10 μM ATP, serial dilution of the inhibitor, and incubated at room temperature for 60 min. After the indicated incubation times, 5 μL ADP-GLO™ reagent (Promega, Madison, WI) was added to the reactions and the plate was incubated at room temperature for 40 min. […] All 384-well assay plates were read using a GLOMAX™ Discover Microplate Luminometer from Promega (Madison, WI). To plot, analyze the data and calculate all kinase reaction biochemical values, both Microsoft Excel and Prism from GraphPad 7 Software (La Jolla, CA) were used.

MER = target: T1, MER (Homo sapiens, UniProt Q12866); assay: Enzymatic assay (ADP-Glo kinase reaction), MER
T1 sequence (Q12866 21-999): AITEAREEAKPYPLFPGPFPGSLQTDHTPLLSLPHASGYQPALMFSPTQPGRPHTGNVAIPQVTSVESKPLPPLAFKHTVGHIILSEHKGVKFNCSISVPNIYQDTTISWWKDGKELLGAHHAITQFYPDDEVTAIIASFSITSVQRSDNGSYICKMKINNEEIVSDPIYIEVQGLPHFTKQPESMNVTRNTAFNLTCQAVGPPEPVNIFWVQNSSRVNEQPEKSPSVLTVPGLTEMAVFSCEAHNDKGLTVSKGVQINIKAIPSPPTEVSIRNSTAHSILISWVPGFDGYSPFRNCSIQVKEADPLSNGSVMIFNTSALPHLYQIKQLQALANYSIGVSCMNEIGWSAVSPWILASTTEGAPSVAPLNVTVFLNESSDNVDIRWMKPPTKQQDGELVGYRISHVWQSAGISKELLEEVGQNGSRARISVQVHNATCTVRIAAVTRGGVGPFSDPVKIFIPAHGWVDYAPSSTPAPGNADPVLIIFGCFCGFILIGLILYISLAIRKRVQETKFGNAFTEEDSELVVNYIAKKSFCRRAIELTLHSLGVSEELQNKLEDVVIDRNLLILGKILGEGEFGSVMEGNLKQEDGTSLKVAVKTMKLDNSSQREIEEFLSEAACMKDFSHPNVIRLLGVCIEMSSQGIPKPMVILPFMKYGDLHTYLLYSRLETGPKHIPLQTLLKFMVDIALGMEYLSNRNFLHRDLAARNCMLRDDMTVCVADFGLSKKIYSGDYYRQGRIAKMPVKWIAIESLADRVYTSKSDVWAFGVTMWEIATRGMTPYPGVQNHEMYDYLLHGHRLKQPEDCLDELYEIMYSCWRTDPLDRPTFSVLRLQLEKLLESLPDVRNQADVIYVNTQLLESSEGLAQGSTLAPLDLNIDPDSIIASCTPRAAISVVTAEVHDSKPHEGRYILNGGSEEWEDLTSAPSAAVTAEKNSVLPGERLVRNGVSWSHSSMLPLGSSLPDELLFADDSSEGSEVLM
Description: (§2) All the kinase reactions were performed in 5 μL using tyrosine kinase buffer with 0.2 μg/μL poly (Glu4, Tyr1) substrate, 10 μM ATP, serial dilution of the inhibitor, and incubated at room temperature for 60 min. After the indicated incubation times, 5 μL ADP-GLO™ reagent (Promega, Madison, WI) was added to the reactions and the plate was incubated at room temperature for 40 min. Then, 10 μL of kinase detection reagent was added and after an incubation time of 40 min, luminescence was recorded and IC50 values were determined (Table 1). All 384-well assay plates were read using a GLOMAX™ Discover Microplate Luminometer from Promega (Madison, WI). To plot, analyze the data and calculate all kinase reaction biochemical values, both Microsoft Excel and Prism from GraphPad 7 Software (La Jolla, CA) were used.
as §2, with “3).” for “1).”

AXL = target: T2, AXL (Homo sapiens, UniProt P30530); assay: Enzymatic assay (ADP-Glo kinase reaction), AXL
T2 sequence (P30530 26-894): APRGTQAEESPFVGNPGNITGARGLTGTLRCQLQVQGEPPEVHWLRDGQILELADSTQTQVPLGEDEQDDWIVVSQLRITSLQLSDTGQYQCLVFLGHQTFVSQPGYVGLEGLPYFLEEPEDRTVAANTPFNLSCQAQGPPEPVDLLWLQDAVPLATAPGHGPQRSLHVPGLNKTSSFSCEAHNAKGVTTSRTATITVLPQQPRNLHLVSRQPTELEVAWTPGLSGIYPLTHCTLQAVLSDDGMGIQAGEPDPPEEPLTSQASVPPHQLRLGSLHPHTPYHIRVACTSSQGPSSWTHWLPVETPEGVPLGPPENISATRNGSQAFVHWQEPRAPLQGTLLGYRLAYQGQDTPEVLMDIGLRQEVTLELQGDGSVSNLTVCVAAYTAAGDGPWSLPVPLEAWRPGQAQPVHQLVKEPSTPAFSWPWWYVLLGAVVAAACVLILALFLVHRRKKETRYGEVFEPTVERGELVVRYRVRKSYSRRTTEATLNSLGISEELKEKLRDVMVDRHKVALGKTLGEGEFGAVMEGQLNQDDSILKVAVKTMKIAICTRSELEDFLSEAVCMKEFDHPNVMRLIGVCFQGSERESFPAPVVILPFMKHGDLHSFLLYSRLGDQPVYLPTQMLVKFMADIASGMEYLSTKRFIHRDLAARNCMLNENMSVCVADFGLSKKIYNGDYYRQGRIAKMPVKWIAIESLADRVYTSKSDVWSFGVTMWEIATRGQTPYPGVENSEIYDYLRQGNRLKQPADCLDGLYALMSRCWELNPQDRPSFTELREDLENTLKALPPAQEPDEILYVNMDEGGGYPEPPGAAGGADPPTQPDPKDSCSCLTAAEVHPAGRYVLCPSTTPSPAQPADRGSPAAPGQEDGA
Description: as §1

Sequence of c-MET (P08581 25-1390): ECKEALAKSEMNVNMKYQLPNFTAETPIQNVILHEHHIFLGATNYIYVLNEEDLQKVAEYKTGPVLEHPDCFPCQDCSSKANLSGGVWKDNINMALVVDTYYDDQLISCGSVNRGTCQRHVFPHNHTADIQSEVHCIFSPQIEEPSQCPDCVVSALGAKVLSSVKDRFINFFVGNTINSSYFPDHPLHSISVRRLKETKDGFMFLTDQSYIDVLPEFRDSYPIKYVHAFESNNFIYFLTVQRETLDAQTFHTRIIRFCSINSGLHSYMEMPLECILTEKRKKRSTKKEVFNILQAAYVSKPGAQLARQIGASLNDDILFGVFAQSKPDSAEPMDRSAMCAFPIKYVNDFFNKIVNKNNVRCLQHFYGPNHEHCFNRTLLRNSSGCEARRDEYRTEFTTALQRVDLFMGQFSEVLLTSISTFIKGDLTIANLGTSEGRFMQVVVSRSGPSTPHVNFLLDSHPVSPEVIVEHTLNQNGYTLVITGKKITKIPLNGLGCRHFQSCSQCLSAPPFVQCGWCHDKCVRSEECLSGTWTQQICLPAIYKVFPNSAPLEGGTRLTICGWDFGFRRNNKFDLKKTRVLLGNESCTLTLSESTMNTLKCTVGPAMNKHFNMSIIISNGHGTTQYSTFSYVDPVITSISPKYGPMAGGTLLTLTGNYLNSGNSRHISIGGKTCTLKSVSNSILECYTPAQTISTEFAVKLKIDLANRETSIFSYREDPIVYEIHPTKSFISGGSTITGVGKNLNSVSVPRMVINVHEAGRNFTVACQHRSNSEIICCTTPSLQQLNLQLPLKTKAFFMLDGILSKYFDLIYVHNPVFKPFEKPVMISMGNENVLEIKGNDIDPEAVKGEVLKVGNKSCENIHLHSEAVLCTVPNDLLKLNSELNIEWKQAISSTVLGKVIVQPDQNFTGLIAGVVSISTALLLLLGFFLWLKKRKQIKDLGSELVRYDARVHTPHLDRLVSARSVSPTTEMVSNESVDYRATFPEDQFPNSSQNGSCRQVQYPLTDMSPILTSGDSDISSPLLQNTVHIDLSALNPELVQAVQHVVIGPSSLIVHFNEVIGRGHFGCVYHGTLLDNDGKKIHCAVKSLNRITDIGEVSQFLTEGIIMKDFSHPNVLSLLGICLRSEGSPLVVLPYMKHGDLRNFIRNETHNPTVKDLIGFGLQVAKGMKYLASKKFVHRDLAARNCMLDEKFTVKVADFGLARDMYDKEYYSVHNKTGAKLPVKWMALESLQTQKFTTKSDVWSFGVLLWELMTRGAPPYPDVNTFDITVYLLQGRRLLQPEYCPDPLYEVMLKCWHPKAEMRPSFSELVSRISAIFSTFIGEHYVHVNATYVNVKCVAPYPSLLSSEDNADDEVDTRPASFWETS

Row | Compound | IC50 (c-MET) [nM] | IC50 (MER) [nM] | IC50 (AXL) [nM]
1 | Cn1nc(C(=O)Nc2ccc(Oc3ccnc(N)c3C#CCC3CCNCC3)c(F)c2)c(=O)n(-c2ccc(F)cc2)c1=O [Example 46, N-(4-((2-amino-3-(3-(piperidin-4-yl)prop-1-yn-1-yl)pyridin-4-yl)oxy)-3-fluorophenyl)-4-(4-fluorophenyl)-2-methyl-3,5-dioxo-2,3,4,5-tetrahydro-1,2,4-triazine-6-carboxamide] | < 100 | < 100 | < 10
2 | CC(C)(C#Cc1c(Oc2ccc(NC(=O)c3cn(C4CCOCC4)c(=O)n(-c4ccc(F)cc4)c3=O)cc2F)ccnc1N)N1CCNCC1 [Example 58, N-(4-(2-amino-3-(3-methyl-3-(piperazin-1-yl)but-1-ynyl)pyridin-4-yloxy)-3-fluorophenyl)-3-(4-fluorophenyl)-2,4-dioxo-1-(tetrahydro-2H-pyran-4-yl)-1,2,3,4-tetrahydropyrimidine-5-carboxamide] | < 100 | < 10 | < 100
3 | Nc1nccc(Oc2ccc(NC(=O)c3c[nH]c(=O)n(-c4ccc(F)cc4)c3=O)cc2F)c1C#CCN1CCOCC1 [Example 51, N-(4-(2-amino-3-(3-morpholinoprop-1-ynyl)pyridin-4-yloxy)-3-fluorophenyl)-3-(4-fluorophenyl)-2,4-dioxo-1,2,3,4-tetrahydropyrimidine-5-carboxamide] | < 100 | < 100 | < 100
4 | Cc1nc(Cn2cc(C(=O)Nc3ccc(Oc4ccnc(N)c4C#CCC4CCNCC4)c(F)c3)c(=O)n(-c3ccc(F)cc3)c2=O)cs1 [Example 44, N-(4-((2-amino-3-(3-(piperidin-4-yl)prop-1-yn-1-yl)pyridin-4-yl)oxy)-3-fluorophenyl)-3-(4-fluorophenyl)-1-((2-methylthiazol-4-yl)methyl)-2,4-dioxo-1,2,3,4-tetrahydropyrimidine-5-carboxamide] | < 10 | < 10 | < 10
5 | CC(C)n1cc(C(=O)Nc2ccc(Oc3ccnc(N)c3C#CCN3CCN(C)CC3)c(F)c2)c(=O)n(-c2ccc(F)cc2)c1=O [Example 26, N-(4-(2-amino-3-(3-(4-methylpiperazin-1-yl)prop-1-ynyl)pyridine-4-yloxy)-3-fluorophenyl)-3-(4-fluorophenyl)-1-isopropyl-2,4-dioxo-1,2,3,4-tetrahydropyrimidine-5-carboxamide] | < 10 | < 10 | < 10
6 | Cn1nc(C(=O)Nc2ccc(Oc3ccnc(N)c3C#CC(C)(C)N3CCOCC3)c(F)c2)c(=O)n(-c2ccc(F)cc2)c1=O [Example 48, N-(4-(2-amino-3-(3-methyl-3-morpholinobut-1-ynyl)pyridin-4-yloxy)-3-fluorophenyl)-4-(4-fluorophenyl)-2-methyl-3,5-dioxo-2,3,4,5-tetrahydro-1,2,4-triazine-6-carboxamide] | < 100 | < 1000 | < 100
7 | C=CCn1cc(C(=O)Nc2ccc(Oc3ccnc(N)c3C#CC(C)(C)N3CCOCC3)c(F)c2)c(=O)n(CC=C)c1=O [Example 70, 1,3-diallyl-N-(4-(2-amino-3-(3-methyl-3-morpholinobut-1-ynyl)pyridin-4-yloxy)-3-fluorophenyl)-2,4-dioxo-1,2,3,4-tetrahydropyrimidine-5-carboxamide] | < 1000 | < 10 | < 1000
8 | CCCn1cc(C#Cc2c(Oc3ccc(NC(=O)c4cn(C(C)C)c(=O)n(-c5ccc(F)cc5)c4=O)cc3F)ccnc2N)cn1 [Example 13, N-(4-(2-amino-3-((1-propyl-1H-pyrazol-4-yl)ethynyl)pyridin-4-yloxy)-3-fluorophenyl)-3-(4-fluorophenyl)-1-isopropyl-2,4-dioxo-1,2,3,4-tetrahydropyrimidine-5-carboxamide] | < 1000 | < 10 | < 10

Other lines, results leading:

Row | IC50 (c-MET) [nM] | IC50 (MER) [nM] | IC50 (AXL) [nM] | Compound
9 | < 100 | < 10 | < 10 | CC(C)n1cc(C(=O)Nc2ccc(Oc3ccnc(N)c3/C=C/C(=O)N3CCNCC3)c(F)c2)c(=O)n(-c2ccc(F)cc2)c1=O [Example 3, (E)-N-(4-(2-amino-3-(3-oxo-3-(piperazin-1-yl)prop-1-enyl)pyridin-4-yloxy)-3-fluorophenyl)-3-(4-fluorophenyl)-1-isopropyl-2,4-dioxo-1,2,3,4-tetrahydropyrimidine-5-carboxamide]
10 | < 10000 | < 10 | < 100 | Cc1noc(C)c1-c1c(Oc2ccc(NC(=O)c3cn(C(C)C)c(=O)n(-c4ccc(F)cc4)c3=O)cc2F)ccnc1N [Example 11]
11 | < 100 | < 100 | < 10 | CC(C)(C#Cc1c(Oc2ccc(NC(=O)c3c[nH]c(=O)n(-c4ccc(F)cc4)c3=O)cc2F)ccnc1N)N1CCOCC1 [Example 50, N-(4-(2-amino-3-(3-methyl-3-morpholinobut-1-ynyl)pyridin-4-yloxy)-3-fluorophenyl)-3-(4-fluorophenyl)-2,4-dioxo-1,2,3,4-tetrahydropyrimidine-5-carboxamide]
12 | < 1000 | < 100 | < 100 | Cn1nc(C(=O)Nc2ccc(Oc3ccnc(N)c3C#CCN3CCOCC3)c(F)c2)c(=O)n(-c2ccc(F)cc2)c1=O [Example 49, N-(4-(2-amino-3-(3-morpholinoprop-1-ynyl)pyridin-4-yloxy)-3-fluorophenyl)-4-(4-fluorophenyl)-2-methyl-3,5-dioxo-2,3,4,5-tetrahydro-1,2,4-triazine-6-carboxamide]
13 | < 1000 | < 100 | < 10000 | CN(C)C(=O)Cn1cc(C(=O)Nc2ccc(Oc3ccnc(N)c3C#CC(C)(C)N3CCOCC3)c(F)c2)c(=O)n(-c2ccc(F)cc2)c1=O [Example 33, N-(4-((2-amino-3-(3-methyl-3-morpholinobut-1-yn-1-yl)pyridin-4-yl)oxy)-3-fluorophenyl)-1-(2-(dimethylamino)-2-oxoethyl)-3-(4-fluorophenyl)-2,4-dioxo-1,2,3,4-tetrahydropyrimidine-5-carboxamide]
